Legend:
CrabTag (CRABP2) = target: T1, CrabTag (CRABP2) (Homo sapiens, UniProt P29373); test: Intact protein ESI-MS of CrabTag-inhibitor complexes; format: binding; details: CrabTag 1 μM, inhibitor 5 μM, 5 minutes
T1 construct: made in house; host or cells: E. coli T7 SHuffle Express
T1 sequence (P29373 2-138): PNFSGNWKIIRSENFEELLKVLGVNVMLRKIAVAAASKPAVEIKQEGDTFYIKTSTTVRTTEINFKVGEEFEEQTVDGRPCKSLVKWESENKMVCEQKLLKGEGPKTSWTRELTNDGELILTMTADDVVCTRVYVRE
Procedure: FIG. 3 illustrates ESI-MS deconvoluted spectra with expected and observed molecular weights for CrabTag with a N-terminal Histag. Top: Purified CrabTag protein with the N-terminal histag and TEV protease recognition sequence (R, Black). Bottom: Adduct from reaction of R (0.1 nmol, 1 μM) with an inhibitor of the disclosure having a structure according to Formula 10 (5 eq., 5 μM) (Red). The reaction occurred in 100 μL of 1×PBS for 5 minutes before being stopped by addition of formic acid in preparation for ESI-MS.
FIG. 4 illustrates intact protein ESI-MS for CrabTag-inhibitor complexes. Reactions of C-terminal Histag R (1 μM, 1 equivalent) with either an inhibitor of the disclosure having a structure according to Formula 10 (5 μM, 5 equivalents) or an inhibitor of the disclosure having a structure according to Formula 11 (5 μM, 5 equivalents) occurred for 5 minutes before being stopped with formic acid.
Megamolecules were prepared for LC-MS analysis and evaluation using ESI-MS. Reaction time points were taken by quenching the sample with 0.1% formic acid. The preparation involved the desalting and dilution of the multi-protein assembly to 1 μM in nuclease free water. […] Spectra data were analyzed with Agilent MassHunter Qualitative Analysis software to reveal m/z data. […]

[1] = target: T2, CrabTag protein domain (CRABP2) (Homo sapiens, UniProt P29373); test: Stability of the covalent CrabTag-linker adduct over two weeks, fluorescent SDS-PAGE; format: physicochemical
T2 construct: made in house; host or cells: E. coli T7 SHuffle Express
T2 sequence (P29373 with tags, fused parts or gaps): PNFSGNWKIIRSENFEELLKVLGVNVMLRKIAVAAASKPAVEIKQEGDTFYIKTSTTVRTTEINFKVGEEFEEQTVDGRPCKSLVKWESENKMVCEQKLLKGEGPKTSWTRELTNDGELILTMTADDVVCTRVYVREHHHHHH

CRABP2 = target: T3, CRABP2 (Homo sapiens, UniProt P29373); test: X-ray crystal structure of the CRABP2-10 covalent complex; format: binding; details: 1.8 Å structure
T3 construct: His6 (N); made in house; host or cells: E. coli T7 SHuffle Express
T3 sequence (P29373 with tags, fused parts or gaps): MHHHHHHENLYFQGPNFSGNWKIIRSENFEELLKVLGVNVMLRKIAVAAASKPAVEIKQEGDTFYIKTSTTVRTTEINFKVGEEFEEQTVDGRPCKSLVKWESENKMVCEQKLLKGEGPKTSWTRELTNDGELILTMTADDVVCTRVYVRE
Procedure: CRABP2 protein (1000 nmol, 100 μM) was reacted with inhibitor 10 (500 μM, 5 equivalents) in PBS for about 1-50 hours, about 6-20 hours, about 10-18 hours, about 12-16 hours, or about 16 hours. The protein-inhibitor adduct was then purified using SEC and the fractions containing the adduct were pooled, dialyzed, and concentrated to 12 mg/mL (1.275 mL total) using a Centrifugal Filter Unit. […]
Data Processing, Structure Determination and Model Refinement. […] Diffraction data were measured at the Life Sciences Collaborative Access beamlines at Sector 21 of the Advanced Photon Source at Argonne National Laboratory, indexed, integrated and scaled with HKL2000.^4 All subsequent work was conducted using the CCP4 suite of programs.^5 The space group and unit cell parameters were confirmed with Pointless.^6 The structure was determined by molecular replacement with PhaserMR, using a single monomer of Human Cellular Retinoic Acid Binding Protein II (CRABPII) (PDB: 6HKR) with ligands and water molecules removed as the initial phasing model. […]

[2] = target: T2, CrabTag protein domain (CRABP2); test: Quantification of reaction kinetics for CRABP2 (CrabTag) covalent modification, fluorescent SDS-PAGE; format: biochemical
Procedure: The present disclosure provides a method for synthesizing linker 11, which includes a fluorophore to characterize the kinetics for reaction of the covalent inhibitor and CrabTag, as shown in FIG. 10A. The inventors have run parallel reactions that varies the concentration of the linker (2, 5, 10, 20, 40, 65, and 100 μM) at a constant concentration of CrabTag (1 μM) and stops the reactions using Laemmli reducing buffer at times ranging from 0 to 120 seconds, as shown in FIG. 10B. […] The inventors have separated the reaction products with SDS-PAGE and quantitated the mean fluorescence intensity of protein bands that corresponded to the adduct with ImageJ. […]
The inventors synthesized linker 11, which included a fluorophore to characterize the kinetics for reaction of the covalent inhibitor and CrabTag as shown in FIG. 10A The inventors ran parallel reactions that varied the concentration of the linker (2, 5, 10, 20, 40, 65, and 100 μM) at a constant concentration of CrabTag (1 μM) and stopped the reactions using Laemmli reducing buffer at times ranging from 0 to 120 seconds as shown in FIG. 10B. […] The inventors separated the reaction products with SDS-PAGE and quantitated the mean fluorescence intensity of protein bands that corresponded to the adduct with ImageJ. […]

[3] = system: fusion protein containing SnapTag and cutinase domains (CS); test: Cross-reactivity of SnapTag and cutinase protein domains with the fluorescent CrabTag inhibitor, SDS-PAGE; format: biochemical; details: CS 10 μM, linker 1 equiv., 25° C. in PBS; CrabTag protein added next day
Excerpt: FIG. 18A illustrates orthogonality of enzyme-inhibitor pairs in the megamolecule assembly toolbox. A Coomassie stain with brightfield view of SDS-PAGE. Lane 1: CRABP2 (R) protein domain (MW, −16 kDa). Lane 2: Reaction of CRABP2 with fluorescent linker 11. Lane 3: Cutinase-SnapTag (CS) fusion protein (MW, −45 kDa). Lane 4: CS with the CrabTag fluorescent inhibitor. Lane 5: CS with the di-cutinase PEG11 linker to yield a di-CS megamolecule (MW, −90 kDa). Lane 6: CS with the di-SnapTag PEG11 linker to yield a di-CS megamolecule (MW, −90 kDa). Lanes 7-8: CS was first mixed with the CrabTag fluorescent inhibitor for two hours. Afterwards, the di-cutinase PEG11 or the di-SnapTag PEG11 linker was added, forming the di-CS megamolecule (MW, −90 kDa). The next day, the R protein was added to form the fluorescent band shown in the fluorescent SDS-PAGE. Lanes 9-10: R was first mixed with either the di-cutinase PEG11 or the di-SnapTag PEG11 linker for two hours, followed by the addition of the CS fusion protein to form the di-CS megamolecule (MW, −90 kDa). The following day, the fluorescent CrabTag linker was added to form the fluorescent band shown in the fluorescent SDS-PAGE. […]
The orthogonality of the CrabTag enzyme-inhibitor system was examined against our existing two chemistries, cutinase and SnapTag. […] All reactions were imaged by SDS-PAGE using both fluorescence and Coomassie stain.

Question: Which “adduct stoichiometry by intact mass spectrometry” value (CrabTag (CRABP2)) does the source give for CC1(C)CCN(C(=O)CCC(=O)O)c2ccc(C#Cc3ccc(OS(=O)(=O)F)cc3)cc21 [inhibitor 10, 4-(6-((4-((fluorosulfonyl)oxy)phenyl)ethynyl)-4,4-dimethyl-3,4-dihydroquinolin-1(2H)-yl)-4-oxobutanoic acid] here?
Answer: monomeric adducts with only one modification

Question: What about the “enzyme-inhibitor complex stable (bound)” value ([1]; room temperature, over two weeks) of the same compound?
Answer: > 95%

Question: And the “residue covalently modified in crystal structure” value (CRABP2)?
Answer: selectively modifies Tyr135

Question: What about the “effective rate constant of the inhibition reaction” value ([2]; CrabTag inhibition reaction) of the same compound?
Answer: approximately 3,600 M^−1s^−1

Question: CC1(C)CCN(C(=O)CCC(=O)NCCOCCOCCOCCOCCOCCOCCOCCOCCOCCOCCOCCNC(=O)CCCCCNC(=O)c2ccc3c(c2)C(=O)OC32c3ccc(O)cc3Oc3cc(O)ccc32)c2ccc(C#Cc3ccc(OS(=O)(=O)F)cc3)cc21 [linker 11, Bi-EG(11)-(CrabTag Ligand, Fluorescein)] was tested. Which “reactivity of the CrabTag linker after incubation with CS fusion protein” value [3] did it give?
Answer: maintained selective reactivity with the CrabTag enzyme

Question: What about the “adduct stoichiometry by intact mass spectrometry” value (CrabTag (CRABP2)) of the same compound?
Answer: monomeric adducts with only one modification

Question: What about the “protein domains retaining covalent occupancy of the linker (normalized covalent occupancy)” value ([1]; 1 μM in PBS, 25° C. (room temperature), after two weeks) of the same compound?
Answer: over 95%

Question: And the “second order rate constant for the covalent modification reaction, keff” value ([2]; CrabTag 1 μM, linker 2-100 μM, times 0 to 120 seconds, ratio of ki and KI)?
Answer: (3.6±0.5)×10^3 M^−1s^−1
